Laboratory results taken from the NIST ThermoML archive (doi:10.1021/je800012v).
Numbers after ± are expanded uncertainties.

Experiment: xn = mol fraction of the nth substance listed
Conditions: Liquid

CCCCCl [1-chlorobutane] + CCCCCC
mass density [kg/m3]
Conditions	x1 = 0.1099	x1 = 0.212	x1 = 0.2925	x1 = 0.316	x1 = 0.405	x1 = 0.4978	x1 = 0.5975	x1 = 0.6869	x1 = 0.8294	x1 = 0.9025
303.15 K, 15000 kPa	–	–	–	–	–	763.87 ± 0.52	786.55 ± 0.48	807.83 ± 0.44	843.86 ± 0.37	863.22 ± 0.34
303.15 K, 20000 kPa	689.49 ± 0.79	708.98 ± 0.74	724.92 ± 0.7	729.73 ± 0.69	748.24 ± 0.65	768.43 ± 0.6	791.14 ± 0.55	812.44 ± 0.5	848.41 ± 0.42	867.82 ± 0.38
303.15 K, 25000 kPa	693.71 ± 0.89	713.22 ± 0.84	729.21 ± 0.8	733.98 ± 0.79	752.58 ± 0.74	772.8 ± 0.68	795.51 ± 0.62	816.83 ± 0.57	852.75 ± 0.47	872.22 ± 0.42
303.15 K, 30000 kPa	697.71 ± 1	717.27 ± 0.94	733.29 ± 0.89	738.06 ± 0.88	756.71 ± 0.82	776.94 ± 0.76	799.69 ± 0.69	821.01 ± 0.62	856.96 ± 0.51	876.44 ± 0.46
303.15 K, 35000 kPa	701.46 ± 1.1	721.06 ± 1	737.11 ± 0.98	741.91 ± 0.96	760.56 ± 0.9	780.82 ± 0.83	803.62 ± 0.75	824.94 ± 0.68	860.94 ± 0.55	880.41 ± 0.49
313.15 K, 100 kPa	660.25 ± 0.33	679.39 ± 0.32	695.16 ± 0.31	699.82 ± 0.3	718.21 ± 0.29	738.18 ± 0.27	760.7 ± 0.26	781.81 ± 0.24	817.54 ± 0.22	836.89 ± 0.21
313.15 K, 2500 kPa	663.22 ± 0.39	682.37 ± 0.37	698.14 ± 0.36	702.79 ± 0.36	721.17 ± 0.34	741.14 ± 0.32	763.65 ± 0.3	784.75 ± 0.28	820.43 ± 0.25	839.76 ± 0.24
313.15 K, 5000 kPa	666.15 ± 0.45	685.31 ± 0.43	701.06 ± 0.41	705.74 ± 0.41	724.11 ± 0.39	744.08 ± 0.37	766.58 ± 0.34	787.66 ± 0.32	823.33 ± 0.28	842.65 ± 0.26
313.15 K, 10000 kPa	671.67 ± 0.57	690.86 ± 0.54	706.6 ± 0.52	711.27 ± 0.51	729.65 ± 0.49	749.65 ± 0.46	772.1 ± 0.42	793.2 ± 0.39	828.82 ± 0.34	848.11 ± 0.31
313.15 K, 15000 kPa	676.77 ± 0.69	695.99 ± 0.65	711.76 ± 0.62	716.43 ± 0.61	734.82 ± 0.58	754.83 ± 0.54	777.29 ± 0.5	798.39 ± 0.46	833.99 ± 0.39	853.27 ± 0.36
313.15 K, 20000 kPa	681.54 ± 0.8	700.78 ± 0.76	716.6 ± 0.72	721.27 ± 0.71	739.68 ± 0.67	759.7 ± 0.63	782.18 ± 0.57	803.3 ± 0.53	838.9 ± 0.44	858.17 ± 0.4
313.15 K, 25000 kPa	686.03 ± 0.92	705.32 ± 0.86	721.16 ± 0.82	725.85 ± 0.81	744.28 ± 0.76	764.34 ± 0.71	786.8 ± 0.65	807.96 ± 0.59	843.57 ± 0.49	862.84 ± 0.44
313.15 K, 30000 kPa	690.26 ± 1	709.59 ± 0.96	725.44 ± 0.92	730.12 ± 0.9	748.61 ± 0.84	768.68 ± 0.78	791.2 ± 0.71	812.36 ± 0.65	847.97 ± 0.54	867.27 ± 0.48
313.15 K, 35000 kPa	694.28 ± 1.1	713.66 ± 1.1	729.55 ± 1	734.28 ± 0.99	752.76 ± 0.93	772.87 ± 0.86	795.4 ± 0.78	816.59 ± 0.71	852.24 ± 0.58	871.55 ± 0.52
323.15 K, 100 kPa	650.68 ± 0.34	669.65 ± 0.33	685.16 ± 0.31	689.81 ± 0.31	708 ± 0.3	727.88 ± 0.28	750.16 ± 0.27	771.11 ± 0.25	806.56 ± 0.23	825.76 ± 0.22
323.15 K, 2500 kPa	653.88 ± 0.4	672.84 ± 0.38	688.38 ± 0.37	693.01 ± 0.36	711.21 ± 0.35	730.97 ± 0.33	753.32 ± 0.31	774.25 ± 0.29	809.67 ± 0.26	828.84 ± 0.25
323.15 K, 5000 kPa	657.08 ± 0.46	676.07 ± 0.44	–	–	–	–	–	–	–	–
